Experimental data from US20010051602A1, “Methods for increasing ApoE levels for the treatment of neurodegenerative disease” (priority 1997, published 2001).
“And” between values parts separate entries of the source, which are not always exact repeats. Equal entries are not always repeated.

Assays:
ApoE [1] = assay: in vivo effect of probucol on ApoE levels in murine tissues, immunoblot densitometry; conditions: mice; for ApoE G/Dens (% Peak) / ApoE G/Dens-DD / ApoE G/DxA (% Total): pooled
Description: To extend the foregoing in vitro studies, the following animal study was conducted. […] At the end of ten days, the animals were sacrificed and the brain tissue collected, rapidly dissected, and the hippocampi were isolated. The livers, tissue, and blood were also collected. Tissue homogenates from all ten animals were pooled and the ApoE levels in the different tissues were determined by immunoblot.

Tau protein = assay: clinical trial: Tau protein in the CSF; type: in vivo, human
Source text: (§1) Biological Markers: Additional biochemical markers included phenotyping of the patients ApoE and determining relative concentrations of tau protein, P-amyloid protein (1-42 and 1-40); and relative extent of lipid peroxidation.

β-amyloid protein (1-40) = assay: clinical trial: CSF total β-amyloid (1-40); type: in vivo, human
Source text: as §1
Tables 11 and 12 summarize the changes in total β-amyloid protein (1-40 and 1-42) at one month, as a percentage of the baseline values.

cortical infarct = assay: Wistar rat middle cerebral artery occlusion stroke model; type: in vivo; conditions: rats dosed i.p. daily for ten days, 2 hour middle cerebral artery occlusion, 22 hours reperfusion
Description: In particular, the Wistar rat model may be used with modifications. Briefly, rats are dosed (i.p.) daily with probucol or a saline negative control for ten days. On the tenth day, animals are then subjected to a 2 hour reversible, middle cerebral artery occlusion. Laser-Doppler flowmetry is used to monitor the ischemic period and early reperfusion. […] We predict that the cortical infarct volumes (indicative of neuronal damage) will be less in animals treated with probucol as compared to untreated animals.

Alzheimer's disease [2] = assay: clinical trial: ADAS-Cog (extended 117 point scale); type: in vivo, human
Description: (§2) Neuropsychological Assessment: The Alzheimer's Disease Assessment Scale, Cognitive Part (ADAS-Cog) (see Rosen et al., Am. J. Psychiatr., 141:1356-1364 (1984)) was used as an objective neuropsychological measure. It consists of a battery of neuropsychological tests for different cognitive functions. The battery comes to a single score with a maximum of 70 points and is administered in about 45 minutes to patients. A 117 point extended scale version of this test was also used (see Table 5). The extended 117 pt. […] The scoring method for this modified ADAS-Cog test ranges from 0 (the lowest score) to 117 (the best possible score).

ApoE [3] = assay: clinical trial: ApoE levels in CSF of AD patients treated with probucol, immunoblot; type: in vivo, human; conditions: probucol 1000 mg/day; for Average Change in ApoE (% baseline): one month of treatment, 8 patients
Description: Biological Marker: A lumbar puncture was performed at baseline and one month after treatment. The relative concentrations of ApoE levels in the CSF were determined by immunoblot as described by Poirer, J. et al., Neuroscience 55:81-90 (1993).
The cerebral spinal fluid (CSF) of the above subjects was analyzed for the concentration of ApoE protein by immunoblot using an internal standard. The samples for the first six patients were analyzed independently of the last two patients, thus the scales for patients 1-6 are different from the scales for patients 8 and 9.

Alzheimer's disease [4] = assay: clinical trial: ADAS-Cog (70 point scale); type: in vivo, human
Description: as §2, with “5).” for “5). The extended 117 pt.”, “ADAS includes both cognitive (ADAS-Cog) and non-cognitive (ADAS-Noncog) subscales and the tests components of memory, language, and behavior. […] We further assessed the cognitive functioning of these patients with the extended scale” for “scoring method for this modified”, “test.” for “test ranges from 0 (the lowest score) to 117 (the best possible score).”

[5] = Blood, 0.1 mg i.p. daily for ten days
[6] = Blood, 0.5 mg i.p. daily for ten days
[7] = Blood, 5.0 mg i.p. daily for ten days
[8] = Hippocampus, 0.1 mg i.p. daily for ten days
[9] = Hippocampus, 0.5 mg i.p. daily for ten days
[10] = Hippocampus, 5.0 mg i.p. daily for ten days
[11] = Liver, 0.1 mg i.p. daily for ten days
[12] = Liver, 0.5 mg i.p. daily for ten days
[13] = Liver, 5.0 mg i.p. daily for ten days
[14] = highest administered dose (5 mg), ten days
[15] = average of patients, baseline average 66.8
[16] = individual AD patient, 117 is the best possible score
[17] = average of patients, baseline average 28.9
[18] = individual AD patient, higher score indicates poorer performance

CC(C)(Sc1cc(C(C)(C)C)c(O)c(C(C)(C)C)c1)Sc1cc(C(C)(C)C)c(O)c(C(C)(C)C)c1 [probucol]
ApoE G/Dens (% Peak) (ApoE [1]; [5]): 70.886 % Peak
ApoE G/Dens-DD (ApoE [1]; [5]): 0.2783
ApoE G/DxA (% Total) (ApoE [1]; [5]): 19.187 % Total
ApoE G/Dens (% Peak) (ApoE [1]; [6]): 57.610 % Peak
ApoE G/Dens-DD (ApoE [1]; [6]): 0.2262
ApoE G/DxA (% Total) (ApoE [1]; [6]): 14.885 % Total
ApoE G/Dens (% Peak) (ApoE [1]; [7]): 45.847 % Peak
ApoE G/Dens-DD (ApoE [1]; [7]): 0.1800
ApoE G/DxA (% Total) (ApoE [1]; [7]): 11.846 % Total
ApoE G/Dens (% Peak) (ApoE [1]; [8]): 18.571 % Peak
ApoE G/Dens-DD (ApoE [1]; [8]): 0.0729
ApoE G/DxA (% Total) (ApoE [1]; [8]): 4.570 % Total
ApoE G/Dens (% Peak) (ApoE [1]; [9]): 14.958 % Peak
ApoE G/Dens-DD (ApoE [1]; [9]): 0.0587
ApoE G/DxA (% Total) (ApoE [1]; [9]): 3.497 % Total
ApoE G/Dens (% Peak) (ApoE [1]; [10]): 25.469 % Peak
ApoE G/Dens-DD (ApoE [1]; [10]): 0.1000
ApoE G/DxA (% Total) (ApoE [1]; [10]): 5.954 % Total
ApoE G/Dens (% Peak) (ApoE [1]; [11]): 21.386 % Peak
ApoE G/Dens-DD (ApoE [1]; [11]): 0.0840
ApoE G/DxA (% Total) (ApoE [1]; [11]): 5.263 % Total
ApoE G/Dens (% Peak) (ApoE [1]; [12]): 11.315 % Peak
ApoE G/Dens-DD (ApoE [1]; [12]): 0.0444
ApoE G/DxA (% Total) (ApoE [1]; [12]): 2.506 % Total
ApoE G/Dens (% Peak) (ApoE [1]; [13]): 8.268 % Peak
ApoE G/Dens-DD (ApoE [1]; [13]): 0.0325
ApoE G/DxA (% Total) (ApoE [1]; [13]): 1.933 % Total
levels of ApoE in the blood, % of the control value (ApoE [1]; [14]): 60%
levels of ApoE in the liver, % of the control value (ApoE [1]; [14]): 60%
levels of ApoE in the brain, % of the control value (ApoE [1]; highest dose evaluated (5 mg), ten days): approximately 150%
Tau concentration in the CSF, % change (Tau protein; 1 month relative to baseline, individual AD patient): 93% and 109% and 97% and 92% and 102% and 113% and 94% and 131% and 99%
Tau concentration in the CSF, 1 month (Tau protein; individual AD patient): 188 and 1099 and 251 and 1070 and 458 and 1120 and 394 and 916 and 620
effect on Tau levels in the CSF, as a group (Tau protein; one month relative to baseline): no effect
[β amyloid 1-40] in the CSF, % change (β-amyloid protein (1-40); 1 month as a percentage of the baseline value, individual AD patient): 345% and 108% and 100% and 241% and 105% and 107% and 979% and 2157%
[β amyloid 1-40] in the CSF, 1 month (β-amyloid protein (1-40); individual AD patient, average of triplicate assays): 3.44 and 3.95 and 4.96 and 7.55 and 3.26 and 3.51 and 5.35 and 2.16
levels of β-amyloid in the CSF (β-amyloid protein (1-40); one month of treatment, Alzheimer's patients, β-amyloid 1-40 and 1-42): overall increase
cortical infarct volumes compared to untreated animals (cortical infarct): less
ADAS-Cog (117 point scale) score, 3 months, Average (Alzheimer's disease [2]; [15]): 65.6
ADAS-Cog (117 point scale) score, 6 months, Average (Alzheimer's disease [2]; [15]): 68.1
ADAS-Cog (117 point scale) score, 3 months (Alzheimer's disease [2]; [16]): 73 (2×) and 51 and 63 (3×) and 83 and 56
ADAS-Cog (117 point scale) score, 6 months (Alzheimer's disease [2]; [16]): 74 and 49 and 82 (2×) and 63 and 58 and 72 and 65
number of patients that appeared to stabilize or improve, ADAS-Cog (117 point scale) (Alzheimer's disease [2]; six month treatment, eight patients): five
Change in ApoE (% baseline) (ApoE [3]; 1 month, individual AD patient): 118% baseline and 89% baseline and 87% baseline and 152% baseline and 105% baseline and 178% baseline and 136% baseline and 133% baseline
ApoE 1 month (ROD) (ApoE [3]; individual AD patient, scales of patients 1-6 differ from patients 8 and 9): 2.59 ROD and 7.14 ROD and 9.17 ROD and 0.1086 ROD and 0.0861 ROD and 8.03 ROD and 14.81 ROD and 10.27 ROD
Average Change in ApoE (% baseline) (ApoE [3]): 125%
Average Change in ApoE (% baseline) (ApoE [3]; listed as Probucol): 125%
ADAS-Cog (70 point scale) score, 3 months, Average (Alzheimer's disease [4]; [17]): 29.5
ADAS-Cog (70 point scale) score, 6 months, Average (Alzheimer's disease [4]; [17]): 30.13
ADAS-Cog (70 point scale) score, 3 months (Alzheimer's disease [4]; [18]): 37 and 41 and 22 and 18 and 27 and 29 and 34 and 28
ADAS-Cog (70 point scale) score, 6 months (Alzheimer's disease [4]; [18]): 40 (2×) and 44 and 16 and 17 and 25 and 36 and 23
